A short description of data set [1]: Oral pharmacokinetic study in male rats (oral gavage). Format: in vivo, rat. The settings on record: for AUC(0-t) / Cmax: male, CD, rat, po. On the procedure: Compound A (free base) and B (toslyate monohydrate salt of compound A) was administered to male rats, strain CD®, via oral gavage using 1% Poloxamer 407 or 0.5% carboxymethyl cellulose (CMC) as the vehicle (Table 1). All doses were calculated as free base equivalents.
For each dosing group blood was collected from 3 animals at each of the following time points: 0, 0.5, 1, 2, 4, 6, 8, 10, 12, 16, 24, and 48 hours post dose. Plasma was prepared using standard techniques with sodium heparin as anti-coagulant. The Compound A and B plasma concentrations were determined using a GLP-validated LC/MS/MS bioanalytical method. Pharmacokinetic analyses were performed using PK Solutions 2.0™ or WinNonLin 5.1.

Data set [2] is described as follows: Solubility in cyclodextrins. The settings on record: for solubility: aqueous with cosolvent or surfactant or cyclodextrin, thermodynamic from solid. It counts as physicochemical.
The nature of data set [3]: Pharmacokinetic study in male rats, single oral dose in 80% PEG400. To be noted: rat, in vivo.
For data set [4], the system named is Staphylococcus aureus ATCC 29213. The data set is described as follows: Mouse thigh abscess infection model. To be noted: for ED50: Staphylococcus aureus, ATCC29213; for ED50 / ED80 / Static dose: mice, oral, Inhibitory Effect Sigmoid Emax Model fit; for Average Change logCFU/thigh: neutropenic mice, 6 hours post dose, vs time 0 controls. It counts as in vivo. The protocol:
Compound A (free base) unmilled, and the tosylate salt of Compound A milled were tested in the same mouse thigh abscess model following single oral doses in 0.5% carboxymethyl cellulose. Mice (6 per dosing group) were rendered neutropentic, and the thigh of each mouse was injected with 1×10^5 colony forming units (CFU) of Staphylococcus aureus ATCC 29213. Two hours post infection, mice were dosed with the drug orally, and at 6 hours post dose, bacterial viable counts where determined from the thighs of all the mice. Efficacy was calculated as the average change in CFU/thigh compared to time 0 (time of dosing) controls.

[5] abbreviates: plasma, 10 mg/kg, 10 mg/kg (free base equivalents), 0.5% CMC.
The mark [6] stands for this setting: plasma, 10 mg/kg, 10 mg/kg (free base equivalents), 1% Poloxamer 407.
Setting [7] is: plasma, 30 mg/kg, 30 mg/kg (free base equivalents), 0.5% CMC.
Setting [8] is: plasma, 75 mg/kg, 75 mg/kg (free base equivalents), 0.5% CMC.
The mark [9] stands for this setting: male, po, 30 mg/kg, single oral dose 30 mg/kg in 80% PEG400, particle state Milled.
The mark [10] stands for this setting: male, po, 30 mg/kg, single oral dose 30 mg/kg in 80% PEG400, particle state Unmilled.
[11] abbreviates: single oral dose 0.3 mg/kg in 0.5% carboxymethyl cellulose.
Setting [12] is: single oral dose 1 mg/kg in 0.5% carboxymethyl cellulose.
The mark [13] stands for this setting: single oral dose 3 mg/kg in 0.5% carboxymethyl cellulose.
The mark [14] stands for this setting: single oral dose 10 mg/kg in 0.5% carboxymethyl cellulose.
Setting [15] is: single oral dose 30 mg/kg in 0.5% carboxymethyl cellulose.
[16] abbreviates: single oral dose 30 mg/kg in 80% PEG400, particle state Unmilled.
Setting [17] is: in vivo, 10 mg/kg, 10 mg/kg (free base equivalents), 0.5% CMC.
Setting [18] is: in vivo, 10 mg/kg, 10 mg/kg (free base equivalents), 1% Poloxamer 407.
Setting [19] is: in vivo, 30 mg/kg, 30 mg/kg (free base equivalents), 0.5% CMC.
[20] abbreviates: in vivo, 75 mg/kg, 75 mg/kg (free base equivalents), 0.5% CMC.

Structures are written as SMILES. Converted amounts (≈) assume the structure as drawn. Like-named read-outs stand apart in the source and are kept apart here.

As usually defined, the AUC(0-t) is the area under the concentration-time curve up to a stated or last time point. For orientation: Cmax means the peak of the concentration-time curve. Broadly, the solubility is the dissolved amount per volume that the medium holds. Broadly, the AUC(0-inf) is the area under the concentration-time curve extrapolated to infinity. The term half-life denotes the time needed for the level to fall by half in the phase considered. The low end stands for fast loss, the high end for slow loss. What is called ED50 is the dose that gives a 50% effect, or the effect in half of the subjects. A low value points to greater potency.

For the compound `Cc1c(CN(C)C(=O)/C=C/c2cnc3c(c2)CCC(=O)N3)oc2ccccc12` [Free base, (E)-N-methyl-N-((3-methylbenzofuran-2-yl)methyl)-3-(7-oxo-5,6,7,8-tetrahydro-1,8-naphthyridin-3-yl)acrylamide], the AUC(0-t) in data set [1] (setting [5]) came out at 980 ng·h/mL; in data set [1] (setting [6]), 883 ng·h/mL; in data set [1] (setting [7]) it was 1620 ng·h/mL; in data set [1] (setting [8]) it was 2370 ng·h/mL; in data set [3] (setting [9]), 6370 ng·h/mL; in data set [3] (setting [10]) it was 1160 ng·h/mL. For the same compound, the Cmax in data set [1] (setting [5]) is 163 ng/mL; in data set [1] (setting [6]), 157 ng/mL; in data set [1] (setting [7]) it was 176 ng/mL; in data set [1] (setting [8]), 246 ng/mL; in data set [3] (setting [9]), 1970 ng/mL; in data set [3] (setting [10]), 421 ng/mL. Also, the solubility in data set [2] (10% hydroxypropyl beta-cyclodextrin, cyclodextrin concentration 10%, shake-flask technique, read-out: Solubility in Hydroxypropyl Beta-Cyclodextrin) is 20 µg/mL (≈ 53.3 µM); in data set [2] (10% hydroxypropyl beta-cyclodextrin, cyclodextrin concentration 10%, evaporating an ethanol/water/DMA blend of cyclodextrin and API and reconstituting with water, read-out: Solubility in Hydroxypropyl Beta-Cyclodextrin) it was 9 µg/mL (≈ 24 µM); in data set [2] (10% sulfobutyl ether beta-cyclodextrin, cyclodextrin concentration 10%, read-out: Solubility in Sulfobutyl Ether Beta-Cyclodextrin), 7 µg/mL (≈ 18.6 µM). Moreover, the AUC(0-inf) in data set [3] (setting [9]) was determined as 6570 ng·h/mL; in data set [3] (setting [10]) it was 1260 ng·h/mL. The results for the half-life in data set [3] (setting [9]) and in data set [3] (setting [10]) were 330 min and 120 min, respectively. The compound further yielded an ED50 in data set [4] of 4 mg/kg. Moreover, in data set [4], the ED80 came to 8.8 mg/kg. In data set [4], this compound returned a Static dose of 10.5 mg/kg. Moreover, the “Average Change logCFU/thigh” value in data set [4] (setting [11]) is given as 1.6 logCFU/thigh; in data set [4] (setting [12]), 1.35 logCFU/thigh; in data set [4] (setting [13]), 0.3 logCFU/thigh; in data set [4] (setting [14]), 0.36 logCFU/thigh; in data set [4] (setting [15]), −0.29 logCFU/thigh.

For `CS(=O)(=O)O.Cc1c(CN(C)C(=O)/C=C/c2cnc3c(c2)CCC(=O)N3)oc2ccccc12` [Mesylate, (E)-N-methyl-N-((3-methylbenzofuran-2-yl)methyl)-3-(7-oxo-5,6,7,8-tetrahydro-1,8-naphthyridin-3-yl)acrylamide methane sulfonate], in data set [3] (setting [9]), the total exposure AUC(0-inf) is 6040 ng·h/mL, the AUC(0-t) was found to be 5770 ng·h/mL, the Cmax was 884 ng/mL and the half-life was 300 min.

In data set [3] (setting [16]), `Cc1c(CN(C)C(=O)/C=C/c2cnc3c(c2)CCC(=O)N3)oc2ccccc12.O=S(=O)(O)O` [Sulfate, (E)-N-methyl-N-((3-methylbenzofuran-2-yl)methyl)-3-(7-oxo-5,6,7,8-tetrahydro-1,8-naphthyridin-3-yl)acrylamide sulfate] had an AUC(0-inf) of 9970 ng·h/mL, an area under the curve AUC(0-t) of 9480 ng·h/mL, a peak concentration (Cmax) of 1940 ng/mL and a half-life of 342 min.

For the compound `Cc1c(CN(C)C(=O)/C=C/c2cnc3c(c2)CCC(=O)N3)oc2ccccc12.Cc1ccc(S(=O)(=O)O)cc1.O` [Tosylate monohydrate milled, (E)-N-methyl-N-((3-methylbenzofuran-2-yl)methyl)-3-(7-oxo-5,6,7,8-tetrahydro-1,8-naphthyridin-3-yl)acrylamide Tosylate Monohydrate], the “Ratio of tosylate monohyrate/free base AUClast” value in data set [1] (10 mg/kg, 0.5% CMC) came out at 2.1; in data set [1] (10 mg/kg, 1% Poloxamer 407) it was 3.0; in data set [1] (30 mg/kg, 0.5% CMC), 2.3; in data set [1] (75 mg/kg, 0.5% CMC), 1.8. The “Ratio of tosylate monohyrate/free base Cmax” value in data set [1] (10 mg/kg, 0.5% CMC) turned out to be 2.1; in data set [1] (10 mg/kg, 1% Poloxamer 407) it was 2.2; in data set [1] (30 mg/kg, 0.5% CMC), 2.5; in data set [1] (75 mg/kg, 0.5% CMC), 2.4. Also, the AUC(0-t) was 2040 ng·h/mL in data set [1] (setting [17]), 2660 ng·h/mL in data set [1] (setting [18]), 3680 ng·h/mL in data set [1] (setting [19]) and 4260 ng·h/mL in data set [1] (setting [20]). In addition, the Cmax came out at 347 ng/mL in data set [1] (setting [17]), 348 ng/mL in data set [1] (setting [18]), 434 ng/mL in data set [1] (setting [19]) and 595 ng/mL in data set [1] (setting [20]). For the same compound, the solubility in data set [2] (cyclodextrin concentration 10%, read-out: Solubility in Hydroxypropyl Beta-Cyclodextrin) came to 26 µg/mL; in data set [2] (cyclodextrin concentration 10%, read-out: Solubility in Sulfobutyl Ether Beta-Cyclodextrin), 67 µg/mL; in data set [2] (cyclodextrin concentration 40%, read-out: Solubility in Hydroxypropyl Beta-Cyclodextrin), 370 µg/mL; in data set [2] (cyclodextrin concentration 40%, read-out: Solubility in Sulfobutyl Ether Beta-Cyclodextrin), 4000 µg/mL. Also, the “Solubility relative to the free base milled form” value in data set [2] (sulfobutyl ether beta-cyclodextrin, cyclodextrin concentration 10%) is “approximately 10 fold”.

In data set [3] (setting [9]), `Cc1c(CN(C)C(=O)/C=C/c2cnc3c(c2)CCC(=O)N3)oc2ccccc12.Cc1ccc(S(=O)(=O)O)cc1` [Tosylate, (E)-N-methyl-N-((3-methylbenzofuran-2-yl)methyl)-3-(7-oxo-5,6,7,8-tetrahydro-1,8-naphthyridin-3-yl)acrylamide p-toluene sulfonate] showed an AUC(0-inf) of 9510 ng·h/mL, an AUC(0-t) of 9460 ng·h/mL, a Cmax of 1610 ng/mL and a half-life of 210 min. Moreover, in data set [4], it took a dose of 1.3 mg/kg to reach the 50% effect level (ED50), the ED80 was determined as 3.4 mg/kg and the Static dose was 2.4 mg/kg. Also, the “Average Change logCFU/thigh” value in data set [4] (setting [11]) was determined as 1.31 logCFU/thigh. Further, in data set [4] (setting [12]), the “Average Change logCFU/thigh” value is reported as 1.08 logCFU/thigh. Moreover, in data set [4] (setting [13]), the “Average Change logCFU/thigh” value is on record as −0.42 logCFU/thigh. Moreover, the “Average Change logCFU/thigh” value in data set [4] (setting [14]) is reported as −0.62 logCFU/thigh. Besides, in data set [4] (setting [15]), the “Average Change logCFU/thigh” value is listed as −0.77 logCFU/thigh.

(Values after patent publication US8263613B2, “Salts, prodrugs and polymorphs of fab I inhibitors” (Affinium Pharmaceuticals, Inc., priority 2007, dated 2012).)
